Results on 12 molecules are retold here after ChEMBL document CHEMBL2203200, “Synthesis and antitrypanosomal activity of new 6,6,7-trisubstituted thiopyrano[2,3-d][1,3]thiazoles” (Bioorg Med Chem Lett, 2012).

As a reminder, the inhibition is the percentage by which the read-out fell short of the control. A word on the IC50: it is the concentration needed to halve the response being measured. The low end stands for greater potency in that assay, the high end for weaker potency in that assay.

The test system of assay [1] is Trypanosoma brucei brucei. Kind of assay: Antimicrobial activity against bloodstream forms of Trypanosoma brucei brucei 90-13 at 1 ug/ml after 72 hrs by resazurin assay. The class given is functional. The following applies: 90-13, 72 h. (In general: Alamar Blue is a resazurin reagent that responds to reducing activity.)
The test system of assay [2] is Trypanosoma brucei brucei. Kind of assay: Antimicrobial activity against bloodstream forms of Trypanosoma brucei brucei 90-13 after 72 hrs by resazurin assay. Particulars: 90-13, 72 h. The class given is functional, organism-based.
The test system of assay [3] is Trypanosoma brucei gambiense. Kind of assay: Antimicrobial activity against bloodstream forms of Trypanosoma brucei gambiense Feo after 72 hrs by resazurin assay. The class given is functional, organism-based.
Assay [4] deals with Trypanosoma brucei brucei. The experiment in a line: Antimicrobial activity against bloodstream forms of Trypanosoma brucei brucei 90-13 at 10 ug/ml after 72 hrs by resazurin assay. The class given is functional. The following applies: 90-13, 72 h.
For assay [5], the system named is Trypanosoma brucei gambiense. The experiment in a line: Antimicrobial activity against bloodstream forms of Trypanosoma brucei gambiense Feo at 10 ug/ml after 72 hrs by resazurin assay. The class given is functional.
For assay [6], the system named is Trypanosoma brucei gambiense. Kind of assay: Antimicrobial activity against bloodstream forms of Trypanosoma brucei gambiense Feo at 1 ug/ml after 72 hrs by resazurin assay. The class given is functional.

Structures are written as SMILES.

In assay [1], `COc1ccc([C@H]2c3sc(=O)[nH]c3SC[C@]23CC(=O)N(c2ccc(Cl)cc2)C3=O)cc1OC` (relative stereo) registered an inhibition at 1 µg/mL of 82.4%. Besides, the IC50 was 262 nM in assay [2] and 423 nM in assay [3]. The same molecule showed an inhibition at 10 µg/mL in assay [4] of 93.6%.
The molecule `CCN(CC)c1ccc([C@H]2c3sc(=O)[nH]c3SC[C@]23CC(=O)N(c2ccc(Cl)cc2)C3=O)cc1` (relative stereo) registered an inhibition at 1 µg/mL in assay [1] of 21.1%. The IC50 in assay [2] stood at 2400 nM; in assay [3], 3620 nM. Moreover, at 10 µg/mL the inhibition in assay [4] was 98.2%.
On the same counts, the results for `CN(C)c1ccc([C@H]2c3sc(=O)[nH]c3SC[C@]23CC(=O)N(c2ccc(Cl)cc2)C3=O)cc1` (relative stereo) are 36.8%, 1280 nM, 1470 nM and 98.2%.
As to `O=C1C[C@]2(CSc3[nH]c(=O)sc3[C@@H]2c2ccccc2O)C(=O)N1c1ccc(Cl)cc1` (relative stereo), the inhibition at 10 µg/mL in assay [5] came to 19.3%; in assay [4], 11.5%. The inhibition at 1 µg/mL in assay [1] is 13.4%; in assay [6] it was 0.9%.
Regarding `O=C1C[C@]2(CSc3[nH]c(=O)sc3[C@@H]2c2ccccc2O)C(=O)N1c1ccc(O)cc1` (relative stereo), the values for the inhibition at 10 µg/mL in assay [5] and in assay [4] were 15.4% and 18.5%, respectively. The inhibition at 1 µg/mL in assay [1] is 7%; in assay [6], less than 5%.
With `Cc1cccc(N2C(=O)C[C@]3(CSc4[nH]c(=O)sc4[C@@H]3c3ccccc3O)C2=O)c1` (relative stereo), the inhibition at 10 µg/mL in assay [5] came out at 15.3%; in assay [4], 24.5%. Further, the inhibition at 1 µg/mL in assay [1] was 5.5%; in assay [6], less than 5%.
As to `COc1cc([C@H]2c3sc(=O)[nH]c3SC[C@@]2(CC(=O)O)C(=O)O)ccc1OCc1ccccc1` (relative stereo), testing at 1 µg/mL in assay [1] gave an inhibition of 18.1%. The inhibition at 10 µg/mL in assay [4] is less than 5%.
In turn, `COc1cc([C@H]2c3sc(=O)[nH]c3SC[C@@]2(CC(=O)O)C(=O)O)ccc1OC(F)F` (relative stereo) registered an inhibition at 1 µg/mL in assay [1] of 11.3%. The inhibition at 10 µg/mL in assay [4] is less than 5%.
Turning to `CN(C)c1ccc([C@H]2c3sc(=O)[nH]c3SC[C@@]2(CC(=O)O)C(=O)O)cc1` (relative stereo), the inhibition at 1 µg/mL in assay [1] stood at 5.3%. Moreover, the inhibition at 10 µg/mL in assay [4] was less than 5%.
Molecule `CCN(CC)c1ccc([C@H]2c3sc(=O)[nH]c3SC[C@@]2(CC(=O)O)C(=O)O)cc1` (relative stereo) gave an inhibition at 1 µg/mL in assay [1] of less than 5%. The molecule also came in with an inhibition at 10 µg/mL in assay [4] of 5.6%.
For `COc1ccc([C@H]2c3sc(=O)[nH]c3SC[C@]23CC(=O)N(c2ccc(Cl)cc2)C3=O)cc1` (relative stereo), the inhibition at 10 µg/mL in assay [5] is 9.8%; in assay [4] it was 13%. The values for the inhibition at 1 µg/mL in assay [1] and in assay [6] were 10.6% and 2.3%, respectively.
Consider `N=C(N)c1ccc(OCCCCCOc2ccc(C(=N)N)cc2)cc1` [PENTAMIDINE], for which the IC50 in assay [2] is 3.2 nM; in assay [3], 5.2 nM.
